Source: patent EP0231444A2, “Optically active isomers and racemate of 1-(benztriazol-4-yloxy)-3-[2-(2-methoxyphenoxy)-ethylamino]-2-propanol, process for their preparation as well as their use as medicaments” (BOEHRINGER MANNHEIM GMBH, priority 1985, dated 1987)
Structures can show the parent of a compound that is named as a salt.

How the values were obtained:
Blutgefäße [1] = details: as described in EP-B 14 951; cited from earlier work
[2] = target: β₂-Rezeptoren (Rezeptoren der glatten Muskulatur) (Homo sapiens, UniProt P07550); experiment: beta-2 adrenergic receptor blockade (no method described); details: qualitative statement
Sequence of β₂-Rezeptoren (Rezeptoren der glatten Muskulatur) (P07550 whole entry): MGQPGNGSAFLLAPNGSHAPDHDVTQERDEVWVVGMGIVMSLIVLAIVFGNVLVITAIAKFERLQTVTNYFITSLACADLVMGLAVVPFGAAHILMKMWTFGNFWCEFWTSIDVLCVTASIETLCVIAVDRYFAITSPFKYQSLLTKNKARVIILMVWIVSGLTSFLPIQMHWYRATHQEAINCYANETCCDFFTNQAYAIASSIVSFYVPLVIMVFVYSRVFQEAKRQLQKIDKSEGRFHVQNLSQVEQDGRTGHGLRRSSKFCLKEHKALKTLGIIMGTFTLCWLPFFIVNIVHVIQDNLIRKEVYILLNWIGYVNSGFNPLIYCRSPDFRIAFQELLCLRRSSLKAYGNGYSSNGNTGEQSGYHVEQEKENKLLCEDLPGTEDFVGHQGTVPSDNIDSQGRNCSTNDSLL

[3] = target: β₁-Rezeptoren (Rezeptoren des Herzmuskels) (Homo sapiens, UniProt P08588); experiment: beta-1 adrenergic receptor blockade (no method described); details: qualitative statement
Sequence of β₁-Rezeptoren (Rezeptoren des Herzmuskels) (P08588 whole entry): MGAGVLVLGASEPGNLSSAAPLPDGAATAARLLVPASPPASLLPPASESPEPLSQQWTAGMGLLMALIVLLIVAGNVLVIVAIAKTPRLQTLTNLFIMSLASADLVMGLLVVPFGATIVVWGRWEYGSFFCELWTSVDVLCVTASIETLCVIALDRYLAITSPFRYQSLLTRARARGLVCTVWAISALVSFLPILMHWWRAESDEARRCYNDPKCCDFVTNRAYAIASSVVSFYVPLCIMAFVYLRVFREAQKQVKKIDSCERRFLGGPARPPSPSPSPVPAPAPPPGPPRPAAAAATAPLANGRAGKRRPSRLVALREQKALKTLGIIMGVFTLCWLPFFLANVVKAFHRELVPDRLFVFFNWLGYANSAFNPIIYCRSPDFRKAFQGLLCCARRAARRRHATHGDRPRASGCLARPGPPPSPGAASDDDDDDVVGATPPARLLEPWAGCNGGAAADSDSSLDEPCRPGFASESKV

Augeninnendruck = experiment: lowering of intraocular pressure on local application (no method described); type: in vivo; details: lokale Applikation, qualitative statement
Blutgefäße [4] = experiment: vasodilating effect (no method described); details: qualitative statement, enantiomers
[5] = listed as erfindungsgemäße Substanz

β₂-blockierende Wirkung ([2]; listed as Beispiel 8 b)	β₂-blockierende Wirkung [2, 5]	Selektivität β₁ gegenüber β₂ (cardioselektiv) ([3]; β₁ versus β₂)	β₁-blockierende Wirkung ([3]; listed as Beispiel 8 b)	β₁-blockierende Wirkung [3, 5]	β₂-blockierende Wirkung [2]	β₁-blockierende Wirkung [3]	SMILES	vasodilatierende Eigenschaften (Blutgefäße [1])	augeninnendrucksenkende Wirkung (Augeninnendruck)	augeninnendrucksenkende Wirkung (Augeninnendruck; [5])	vasodilatierende / blutgefäßerweiternde Wirkung (Blutgefäße [4])
nicht oder nur wenig beeinflußt	nur sehr geringe β₂-blockierende Wirkung	cardioselektiv	vorwiegend eine β₁-blockierende Wirkung	β₁-blockierende Wirkung besitzt			COc1ccccc1OCCNCC(O)COc1cccc2[nH]nnc12 (racemic) [racemische Substanz, 1-(Benztriazol-4-yloxy)-3-(2-(2-methoxyphenoxy)-ethylamino)-2-propanol]	vasodilatierende Eigenschaften	in extrem geringer Konzentration	im gleichen Maße vorhanden ist wie bei üblichen bekannten β-blockierenden Verbindungen	
					keine β₂-blockierende	keine β₁-blockierende	COc1ccccc1OCCNC[C@@H](O)COc1cccc2[nH]nnc12 (single isomer, unassigned) [R-Enantiomere]		augendrucksenkenden Wirkung		
						praktisch die gesamte	COc1ccccc1OCCNC[C@H](O)COc1cccc2[nH]nnc12 (single isomer, unassigned) [S-Enantiomere, S-(-)-1-(Benztriazol-4-yloxy)-3-(2-(2-methoxyphenoxy)-ethyl-amino)-2-propanol-hydrochlorid]				blutgefäßerweiternde
